Like-named read-outs stand apart in the source and are kept apart here.
Columns and labels:
[1] = system: primary mouse CD4+ T cells; assay: MTS proliferation assay; format: cell-based
Protocol: Compounds A-D were tested to determine whether they could inhibit TGF-β signaling in primary mouse CD4^+ T cells.
Primary mouse CD4^+ T cells were isolated from the spleens of C57/B6 mice using the RoboSep™ cell isolation system (Stemcell Technologies). 0.5 μg/ml of hamster anti-mouse CD3e antibody (145-2C11; eBioscience) was coated onto a 96 well flat bottom plate overnight. 1×10^5 purified CD4^+ T cells were incubated with 1 μg/ml soluble hamster anti-mouse CD28 antibody (37.51, BD Biosciences), 1 nM TGF-β1 and 8-fold serial dilutions of Compounds A-D. After 72 hours, cell proliferation was measured using an MTS assay (Promega) in accordance with the manufacturer's instructions.

[2] = system: TGF-β-induced luciferase activity in HEK293T cells; assay: TGF-β-induced SMAD luciferase reporter assay in HEK293T cells; format: cell-based, human; details: HEK-293T
Protocol: Compounds A-D were tested to determine whether they could inhibit TGF-β-induced luciferase activity in HEK293T cells in vitro.
30,000 HEK293T cells were seeded in a 96 well white flat bottom plate overnight. The next day 100 ng of a SMAD luciferase reporter plasmid per well was transfected into the cells using lipofectamine for 24 hours. The next day cells were treated with Compounds A-D and 100 pM TGFβ for 24 hours. Luciferase activity was measured using the Dual-Glo® luciferase assay kit (Promega). The assay was run twice for Compounds A, B, and D, and three times for Compound C.

ALK5 = molecular target: T1, ALK5 (Homo sapiens, UniProt P36897); assay: recombinant kinase assays; format: biochemical
T1 sequence (P36897 34-503): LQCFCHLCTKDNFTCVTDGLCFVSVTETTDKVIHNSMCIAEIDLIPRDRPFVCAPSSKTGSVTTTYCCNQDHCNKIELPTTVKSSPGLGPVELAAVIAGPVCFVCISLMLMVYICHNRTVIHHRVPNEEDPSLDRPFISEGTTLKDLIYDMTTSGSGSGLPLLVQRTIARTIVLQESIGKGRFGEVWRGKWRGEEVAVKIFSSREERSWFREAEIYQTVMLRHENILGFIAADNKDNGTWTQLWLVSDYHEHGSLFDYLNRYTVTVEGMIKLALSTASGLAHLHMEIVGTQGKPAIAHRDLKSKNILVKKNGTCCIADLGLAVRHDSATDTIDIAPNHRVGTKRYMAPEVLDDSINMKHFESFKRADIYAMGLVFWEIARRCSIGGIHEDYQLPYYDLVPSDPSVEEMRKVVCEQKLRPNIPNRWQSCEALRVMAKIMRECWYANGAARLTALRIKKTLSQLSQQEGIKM
From the text: Compound N was compared to Compound C in a number of in vitro assays.

[3] = Kinase = 1.5 nM, read-out: IC50 (nM) (Kinase = 1.5 nM)
[4] = Kinase = 25 nM, read-out: IC50 (nM) (Kinase = 25 nM)
[5] = Morrison equat/ 5 uM ATP, read-out: Ki (nM) (Morrison equat/ 5 uM ATP)
[6] = Steady state equation, read-out: Ki (nM) (Steady state equation)

IC50 (ALK5; [3]) [nM]	IC50 (ALK5; [4]) [nM]	Ki (ALK5; [5]) [nM]	Ki (ALK5; [6]) [nM]	Structure (SMILES)	effect on TGFβ-mediated inhibition of T cell proliferation ([1]; 1 nM TGF-β1, 72 hours)	Experiment 1 IC50 (nM) ([1]; 1 nM TGF-β1, 72 hours)	further results
–	–	–	–	Cc1cccc(-c2nc(N)sc2-c2ccc3ncccc3n2)n1 [Compound A, 4-(6-methylpyridin-2-yl)-5-(1,5-naphthyridin-2-yl)thiazol-2-amine]	did not show consistent effects	Value not obtained	–
–	–	–	–	CNCCOc1ccc(-c2cc(-c3c[nH]nc3-c3ccccn3)ccn2)cc1 [Compound B, N-methyl-2-(4-(4-(3-(pyridin-2-yl)-1H-pyrazol-4-yl)pyridin-2-yl)phenoxy)ethan-1-amine]	reversed TGFβ-mediated inhibition of T cell proliferation	–	–
1.8	10	0.11	2.25	CNCCOc1ccc(-c2cc(-c3c[nH]nc3-c3cccc(C)n3)ccn2)cc1 [Compound C, N-methyl-2-(4-(4-(3-(6-methylpyridin-2-yl)-1H-pyrazol-4-yl)pyridin-2-yl)phenoxy)ethan-1-amine]	reversed TGFβ-mediated inhibition of T cell proliferation	–	IC50 ([2]; summary value, human HEK cells, read-out: HEK Luciferase Assay): 11.7 nM; IC50 ([2]; Homo sapiens, Experiment 1, 100 pM TGFβ, 24 hours, read-out: Experiment 1 IC50): 10.1 nM; IC50 ([1]; CD4+ T, summary value, mouse T cells, read-out: Mouse T cell proliferation assay): 26 nM; fold more potent than Compound N in the recombinant assays (ALK5): 10 fold
–	–	–	–	CCNC(=O)c1ccc2c(c1)NC(=O)/C2=C(\Nc1ccc(N(CCNC)S(C)(=O)=O)cc1)c1ccccc1 [Compound D, (Z)-N-ethyl-3-(((4-(N-(2-(methylamino)ethyl)methylsulfonamido)phenyl)amino)(phenyl)methylene)-2-oxoindoline-6-carboxamide]	not obtained	Value not obtained	Experiment 2 IC50 (nM) ([1]; Experiment 2, 1 nM TGF-β1, 72 hours): Value not obtained
12	18	2.1	18.4	CCc1cc(-c2ccc3ncnc(N)c3c2)n(-c2cccc(C)n2)n1 [Compound N]	–	–	–
